The compounds below were run against T1, Human plasma kallikrein (Homo sapiens, UniProt P03952) (assay: Kallikrein Assay (fluorogenic substrate hydrolysis, AFC release)). Settings: purified Human plasma kallikrein 0.5 nM; substrate Acetyl-K—P—R-AFC 100 mM; 50 mM HEPES pH 7.4.
T1 construct: yields a heavy chain (371 amino acids) and a light chain (248 amino acids); purchased Enzyme Research Laboratories
Format: biochemical
Summary of the method: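 Enzyme–inhibitor equilibrated before substrate dilution to ≤0.2 Km; human plasma kallikrein at 0.5 nM final, Acetyl-K-P-R-AFC substrate, HEPES pH 7.4 buffer with NaCl, CaCl2, PEG 8000, at room temperature or 37° C. Linear-phase fluorescence rate gives percent inhibition, four-parameter logistic IC50, then Cheng-Prusoff Ki.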

T1 sequence (P03952 391-638 limits assumed): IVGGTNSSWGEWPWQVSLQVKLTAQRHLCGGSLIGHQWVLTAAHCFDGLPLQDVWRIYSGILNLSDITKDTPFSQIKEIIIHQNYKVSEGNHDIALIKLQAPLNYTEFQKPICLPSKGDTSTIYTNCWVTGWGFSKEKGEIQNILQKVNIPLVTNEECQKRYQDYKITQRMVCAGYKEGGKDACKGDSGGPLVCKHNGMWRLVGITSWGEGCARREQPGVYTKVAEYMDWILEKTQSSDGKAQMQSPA
T1 sequence (P03952 20-390 partner limits assumed): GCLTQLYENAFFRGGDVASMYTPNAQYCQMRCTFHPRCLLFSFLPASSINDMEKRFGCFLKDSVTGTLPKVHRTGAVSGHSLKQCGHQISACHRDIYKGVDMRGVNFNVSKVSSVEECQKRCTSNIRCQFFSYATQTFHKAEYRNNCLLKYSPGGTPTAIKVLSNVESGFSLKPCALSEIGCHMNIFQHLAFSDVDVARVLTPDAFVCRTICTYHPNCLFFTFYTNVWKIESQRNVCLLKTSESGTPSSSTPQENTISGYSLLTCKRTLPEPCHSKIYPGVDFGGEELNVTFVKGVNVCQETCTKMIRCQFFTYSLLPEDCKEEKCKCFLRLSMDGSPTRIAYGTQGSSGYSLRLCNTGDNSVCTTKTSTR

| IC50 | Compound |
| --- | --- |
| 281 nM | Cc1c(C(C)n2cc(C(=O)NC3CC(c4cccc(Cl)c4)C3O)nn2)nnc(N2C[C@H]3C[C@H]3C2=O)c1C (single isomer, unassigned) [Example 131, N-((1R,2R,3R or 1S,2S,3S))-3-(3-chlorophenyl)-2-hydroxycyclobutyl)-1-((S or R)-1-(4,5-dimethyl-6-((1R,5S)-2-oxo-3-azabicyclo[3.1.0]hexan-3-yl)pyridazin-3-yl)ethyl)-1H-1,2,3-triazole-4-carboxamide] |
| 0.6 nM | Cc1ccc(C#N)c([C@H]2C[C@@H](NC(=O)c3cn(C(C)c4cnc(N5C[C@H]6C[C@H]6C5=O)c(C)c4C)nn3)C2)n1 (single isomer, unassigned) [Example 99, N-((cis)-3-(3-cyano-6-methylpyridin-2-yl)cyclobutyl)-1-((S or R)-1-(4,5-dimethyl-6-((1R,5S)-2-oxo-3-azabicyclo[3.1.0]hexan-3-yl)pyridin-3-yl)ethyl)-1H-1,2,3-triazole-4-carboxamide] |
| 1.1 nM | CC(c1cnc(N2C[C@H]3C[C@H]3C2=O)c(F)c1)n1cc(C(=O)N[C@H]2C[C@@H](c3cc(Cl)ccc3C#N)C2)cn1 (single isomer, unassigned) [Example 21, N-((cis)-3-(5-chloro-2-cyanophenyl)cyclobutyl)-1-((R or S)-1-(5-fluoro-6-((1R,5S)-2-oxo-3-azabicyclo[3.1.0]hexan-3-yl)pyridin-3-yl)ethyl)-1H-pyrazole-4-carboxamide] |
| 1.1 nM | Cc1c([C@H](C)n2cc(C(=O)NC3CC(c4cccc(Cl)c4)C3O)nn2)cnc(N2C[C@H]3C[C@H]3C2=O)c1C (single isomer, unassigned) [Example 151, N-((1R,2R,3R or 1S,2S,3S))-3-(3-chlorophenyl)-2-hydroxycyclobutyl)-1-((S)-1-(4,5-dimethyl-6-((1R,5S)-2-oxo-3-azabicyclo[3.1.0]hexan-3-yl)pyridin-3-yl)ethyl)-1H-1,2,3-triazole-4-carboxamide] |
| 1.6 nM | Cc1nc([C@@H](C)n2cc(C(=O)N[C@H]3C[C@@H](c4cc(Cl)ccc4C#N)C3)nn2)cnc1N1C[C@H]2CC2C1=O (single isomer, unassigned) [Example 84] |
| 3.9 nM | COc1cc(C(C)n2cc(C(=O)N[C@H]3C[C@@H](c4cc(C)ccc4C#N)C3)cn2)cnc1N1C[C@H]2C[C@H]2C1=O (single isomer, unassigned) [Example 23, N-((cis)-3-(2-cyano-5-methylphenyl)cyclobutyl)-1-((R or S)-1-(5-methoxy-6-((1R,5S)-2-oxo-3-azabicyclo[3.1.0]hexan-3-yl)pyridin-3-yl)ethyl)-1H-pyrazole-4-carboxamide] |
| 105 nM | Cc1nc(N2C[C@H]3C[C@H]3C2=O)ncc1C(C)n1cc(C(=O)N[C@H]2C[C@@H](c3cc(Cl)ccc3C#N)C2)nn1 (single isomer, unassigned) [Example 80, N-((cis)-3-(5-chloro-2-cyanophenyl)cyclobutyl)-1-((R or S)-1-(4-methyl-2-((1R,5S)-2-oxo-3-azabicyclo[3.1.0]hexan-3-yl)pyrimidin-5-yl)ethyl)-1H-1,2,3-triazole-4-carboxamide] |
| 0.6 nM | Cc1nc(N2C[C@H]3C[C@H]3C2=O)ncc1C(C)n1cc(C(=O)NC2CC(C)(c3cc(Cl)ccc3C#N)C2)nn1 (single isomer, unassigned) [Example 82, N-((cis)-3-(5-chloro-2-cyanophenyl)-3-methylcyclobutyl)-1-((R or S)-1-(4-methyl-2-((1R,5S)-2-oxo-3-azabicyclo[3.1.0]hexan-3-yl)pyrimidin-5-yl)ethyl)-1H-1,2,3-triazole-4-carboxamide] |
| 6.7 nM | Cc1cc(N2C[C@H]3C[C@H]3C2=O)ncc1C1(n2cc(C(=O)N[C@H]3C[C@@H](c4cc(Cl)ccc4C#N)C3)nn2)CC1 [Example 160, N-((cis)-3-(5-chloro-2-cyanophenyl)cyclobutyl)-1-(1-(4-methyl-6-((1R,5S)-2-oxo-3-azabicyclo[3.1.0]hexan-3-yl)pyridin-3-yl)cyclopropyl)-1H-1,2,3-triazole-4-carboxamide] |
| 15.8 nM | Cc1c(C(C)n2cc(C(=O)N[C@H]3C[C@@H](c4cc(Cl)ccc4C#N)C3)cn2)nnc(N2C[C@H]3C[C@H]3C2=O)c1C (single isomer, unassigned) [Example 41, N-((cis)-3-(5-chloro-2-cyanophenyl)cyclobutyl)-1-((R or S)-1-(4,5-dimethyl-6-((1R,5S)-2-oxo-3-azabicyclo[3.1.0]hexan-3-yl)pyridazin-3-yl)ethyl)-1H-pyrazole-4-carboxamide] |
| 0.6 nM | COc1cc(C(C)n2cc(C(=O)N[C@H]3C[C@@](C)(c4cc(Cl)ccc4C#N)C3)nn2)cnc1N1C[C@H]2C[C@H]2C1=O (single isomer, unassigned) [Example 105, N-((cis)-3-(5-chloro-2-cyanophenyl)-3-methylcyclobutyl)-1-((R or S)-1-(5-methoxy-6-((1R,5S)-2-oxo-3-azabicyclo[3.1.0]hexan-3-yl)pyridin-3-yl)ethyl)-1H-1,2,3-triazole-4-carboxamide] |
| 1.4 nM | Cc1ncc(C(C)n2cc(C(=O)N[C@H]3C[C@@H](c4cc(Cl)ccc4C#N)C3)nn2)cc1N1C[C@H]2C[C@H]2C1=O (single isomer, unassigned) [Example 139, N-((cis)-3-(5-chloro-2-cyanophenyl)cyclobutyl)-1-((R or S)-1-(6-methyl-5-((1R,5S)-2-oxo-3-azabicyclo[3.1.0]hexan-3-yl)pyridin-3-yl)ethyl)-1H-1,2,3-triazole-4-carboxamide] |
| 1.7 nM | Cc1ccc(C#N)c([C@H]2C[C@@H](NC(=O)c3cn(C(C)c4cnc(N5C[C@H]6C[C@H]6C5=O)cc4C)nn3)C2)c1 (single isomer, unassigned) [Example 67, N-((cis)-3-(2-cyano-5-methylphenyl)cyclobutyl)-1-((S or R)-1-(4-methyl-6-((1R,5S)-2-oxo-3-azabicyclo[3.1.0]hexan-3-yl)pyridin-3-yl)ethyl)-1H-1,2,3-triazole-4-carboxamide] |
| 38.1 nM | CC(c1ncc(N2C[C@H]3C[C@H]3C2=O)cc1F)n1cc(C(=O)N[C@H]2C[C@@H](c3cc(Cl)ccc3C#N)C2)nn1 (single isomer, unassigned) [Example 92, N-((cis)-3-(5-chloro-2-cyanophenyl)cyclobutyl)-1-((R or S)-1-(3-fluoro-5-((1R,5S)-2-oxo-3-azabicyclo[3.1.0]hexan-3-yl)pyridin-2-yl)ethyl)-1H-1,2,3-triazole-4-carboxamide] |
| 29.6 nM | N#Cc1ccc(Cl)cc1[C@H]1C[C@@H](NC(=O)c2cn(C(CO)c3ccc(N4C[C@H]5C[C@H]5C4=O)nc3)nn2)C1 (single isomer, unassigned) [Example 154] |
| 0.3 nM | COc1c(N2C[C@H]3C[C@H]3C2=O)ncc(C(C)n2cc(C(=O)N[C@H]3C[C@@H](c4cc(Cl)ccc4C#N)C3)nn2)c1C (single isomer, unassigned) [Example 111, N-((cis)-3-(5-chloro-2-cyanophenyl)cyclobutyl)-1-((R or S)-1-(5-methoxy-4-methyl-6-((1R,5S)-2-oxo-3-azabicyclo[3.1.0]hexan-3-yl)pyridin-3-yl)ethyl)-1H-1,2,3-triazole-4-carboxamide] |

Source: US12528786B2, “Plasma kallikrein inhibitors” (Merck Sharp & Dohme LLC, priority 2020, dated 2026)
